# Measured values: patent US6352703B1, “Compositions and methods for detecting and killing termites” (Board of Supervisors of Louisiana State University and …, priority 1997, dated 2002)
# What was measured:
# Mucor spp. fungus [1] = experiment: Antifungal filter paper disk test, trial 1 (Sabouraud dextrose agar); assay type: cell-based
# Description: Mucor was isolated from a Formosan termite nest in our laboratory, a nest originally collected from a cottonwood tree in New Orleans, La. The fungus comprised a white mat that covered large areas of the nest that had been exposed to air and water. Fungus was scraped from the nest and suspended in distilled, de-ionized water with a Pasteur pipette. This suspension was streaked on Sabouraud dextrose agar (“SDA”) (Difco Laboratories, Detroit, Mich.) in 100×15 mm plates containing 20 mL SDA. Pure cultures were obtained from individual colonies on these plates as needed. Cultures were maintained on SDA plates in a 27° C. incubator without light until used.
# Filter paper disks (Whatman #1, 1.5 cm) were treated with naphthalene, butylated hydroxytoluene (BHT), dioctyl phthalate, or adipic dioctyl ester, at rates of 2 μg, 20 μg, or 200 μg, dissolved in 100 μL hexane. Controls were treated with hexane alone. For each treatment, just prior to testing for antifungal properties, 1 mL of the hexane solution and ten filter paper disks were placed in a vial, and N2 was used to evaporate the hexane.
# A suspension was prepared by scraping Mucor conidia (spores) from the culture plates, and mixing into distilled, deionized water with a Pasteur pipette. A thin layer of this suspension was spread over the surface of each of 130 SDA plates by placing each plate onto an inoculation turntable (Fisher Scientific, Hampton, N.H.), pipetting 0.2 mL of the suspension into the center of the plate, spinning the turntable, and spreading the suspension onto the agar with a bent glass rod. The plates were allowed to dry for two hours. A treated filter paper disk was then placed in the center of each plate (10 plates/treatment), and the plates were incubated at 27° C. The extent to which each filter paper disk was covered by fungus was determined by visual inspection (by the method described in greater detail below) after four, five, and six days.
# (§1) Fungal growth on each filter paper disk was recorded by making tracings of the disks, inking in areas with visible fungal growth. The fraction of each disk covered by fungus was measured by making photocopy enlargements of these drawings, cutting out the enlarged disks, weighing the entire circle, cutting out the inked areas of the circle (corresponding to fungal growth), and weighing the latter. The fraction of each circle covered with fungus was then calculated as the ratio of these weights. (The weight of the photocopy toner was negligible.)
# (§2) Coverage of filter paper disks was analyzed by the ANOVA procedure (SAS Institute, Version 6.11, Cary, N.C.). Tukey's Studentized Range (HSD) Test was used for comparison of mean separations (α=0.05).
# C. formosanus = experiment: Trail-following bioassay; assay type: in vivo, Coptotermes formosanus Shiraki
# Description: (§3) C. formosanus workers were used in the initial bioassay for trail-following behavior. The trail-following bioassay was conducted on two overlapped pencil circles of radius 3 cm. The circumference of each circle passed through the center of the other circle. Each sample was streaked along one of the circles with a 4 μl-micropipette on nonabsorptive paper. A solvent (control) was streaked along the overlapping circle. After the solvent evaporated, one worker was placed in the center of overlap between the two circles. The arena was covered with a red plastic container to reduce visible light and extraneous air flow. To score the worker's activity, one point was given for each continuous 3 cm traveled by a termite over a one minute period. Three replications were performed for each fraction. A new termite was used and new circles were drawn for each trial.
# (§4) Trail-following bioassays with standard 2-phenoxyethanol followed procedures that were essentially identical to those for the HPLC fraction screening bioassay described above, except that each trial was replicated 10 times; and that workers and soldiers of both C. formosanus and Reticulitermes spp. were tested. Four concentrations of 2-phenoxyethanol, 0.32, 0.032, 0.0032, 0.00032 μg/cm were used in the bioassays.
# Reticulitermes spp. = experiment: Trail-following bioassay; assay type: in vivo
# Description: as §3, §4
# Mucor spp. fungus [2] = experiment: Antifungal filter paper disk test, trial 3 (cornmeal agar, sealed plates, increased rates); assay type: cell-based
# Description: A second trial was conducted with filter papers treated with naphthalene, BHT, or 2,6-di-t-butyl-4-methyl-phenol (“DBP”). A fungal suspension was prepared as in the first trial. Spore concentrations were determined with a counting chamber (Petroff-Hauser, Hauser Scientific Partnership, Horsham, Pa.). Concentrations were adjusted to approximately 10^7 spores/mL. In the first trial fungus grew on SDA quickly, forming a thick mat that soon filled the entire petri dish. […] A thin layer of the spore suspension was spread over the surface of each of 24 cornmeal agar plates using a turntable and bent glass rod, as previously described.
# Filter paper disks were treated with naphthalene, BHT, or DBP at rates of 2 μg, 20 μg, or 200 μg, prepared as in the first trial. On each plate were placed four filter paper disks spaced equidistant from one another (one disk containing each of the three application rates of one of the test compounds, and one disk containing only the hexane control). Each plate was then covered and sealed with parafilm to reduce the release of volatile compounds. The concentration of naphthalene in the headspace was 0.04 μg/cm^3; except in trial 3 below, in which the concentration was 34.6 μg/cm^3, about 700 times the concentration we have observed in termite nest materials. […] The experiment was then repeated, increasing the rates of naphthalene, BHT, and DBP to 200 μg, 600 μg, and 1000 μg (trial 3).
# as §1, §2
# Mucor spp. fungus [3] = experiment: Antifungal filter paper disk test, trial 2 (cornmeal agar, sealed plates); assay type: cell-based
# Description: A second trial was conducted with filter papers treated with naphthalene, BHT, or 2,6-di-t-butyl-4-methyl-phenol (“DBP”). A fungal suspension was prepared as in the first trial. Spore concentrations were determined with a counting chamber (Petroff-Hauser, Hauser Scientific Partnership, Horsham, Pa.). Concentrations were adjusted to approximately 10^7 spores/mL. In the first trial fungus grew on SDA quickly, forming a thick mat that soon filled the entire petri dish. Therefore, in the second trial cornmeal agar (CMA, Difco Laboratories, Detroit, Mich.) was used to slow the growth of the fungus during the six-day observation period. A thin layer of the spore suspension was spread over the surface of each of 24 cornmeal agar plates using a turntable and bent glass rod, as previously described.
# Filter paper disks were treated with naphthalene, BHT, or DBP at rates of 2 μg, 20 μg, or 200 μg, prepared as in the first trial. On each plate were placed four filter paper disks spaced equidistant from one another (one disk containing each of the three application rates of one of the test compounds, and one disk containing only the hexane control). Each plate was then covered and sealed with parafilm to reduce the release of volatile compounds. The concentration of naphthalene in the headspace was 0.04 μg/cm^3; except in trial 3 below, in which the concentration was 34.6 μg/cm^3, about 700 times the concentration we have observed in termite nest materials. The growth of fungus on and around each filter paper disk was recorded three, four, and five days after treatment. The experiment was then repeated, increasing the rates of naphthalene, BHT, and DBP to 200 μg, 600 μg, and 1000 μg (trial 3).
# as §1, §2
# [4] = trial 3, 0 μg disk (hexane only) on the same sealed plate as the compound's treated disks
# [5] = trial 2, 0 μg disk (hexane only) on the same sealed plate as the compound's treated disks
smiles,measurement,setting,value
"CCCCCCCCOC(=O)CCCCC(=O)OCCCCCCCC [Adipic dioctyl ester, adipic dioctyl ester]","Fraction Covered, Day 4 (mean percentage of filter paper disk surface covered by fungus)","Mucor spp. fungus [1]; trial 1, rate 2 μg per disk",44%
same,"Fraction Covered, Day 5 (mean percentage of filter paper disk surface covered by fungus)","Mucor spp. fungus [1]; trial 1, rate 2 μg per disk",83%
same,"Fraction covered, Day 6 (mean percentage of filter paper disk surface covered by fungus)","Mucor spp. fungus [1]; trial 1, rate 2 μg per disk",94%
same,"Fraction Covered, Day 4 (mean percentage of filter paper disk surface covered by fungus)","Mucor spp. fungus [1]; trial 1, rate 20 μg per disk",20%
same,"Fraction Covered, Day 5 (mean percentage of filter paper disk surface covered by fungus)","Mucor spp. fungus [1]; trial 1, rate 20 μg per disk",80%
same,"Fraction covered, Day 6 (mean percentage of filter paper disk surface covered by fungus)","Mucor spp. fungus [1]; trial 1, rate 20 μg per disk",62%
same,"Fraction Covered, Day 4 (mean percentage of filter paper disk surface covered by fungus)","Mucor spp. fungus [1]; trial 1, rate 200 μg per disk",20%
same,"Fraction Covered, Day 5 (mean percentage of filter paper disk surface covered by fungus)","Mucor spp. fungus [1]; trial 1, rate 200 μg per disk",75%
same,"Fraction covered, Day 6 (mean percentage of filter paper disk surface covered by fungus)","Mucor spp. fungus [1]; trial 1, rate 200 μg per disk",91%
OCCOc1ccccc1 [2-phenoxyethanol],Trail-following behavior,C. formosanus; 0.00032 μg/cm,Limited trail-following activity
same,Trail-following behavior,"C. formosanus; C. formosanus workers and soldiers, 0.32, 0.032 and 0.0032 μg/cm",elicited trail-following behaviors
same,Trail-following behavior,Reticulitermes spp.; 0.00032 μg/cm,Limited trail-following activity
same,Trail-following behavior,"Reticulitermes spp.; Reticulitermes spp. workers and soldiers, 0.32, 0.032 and 0.0032 μg/cm",elicited trail-following behaviors
"Cc1cc(C(C)(C)C)c(O)c(C(C)(C)C)c1 [DBP, 2,6-di-t-butyl-4-methyl-phenol]","Fraction Covered, Day 3 (mean percentage of filter paper disk surface covered by fungus)",Mucor spp. fungus [2]; [4],40%
same,"Fraction Covered, Day 4 (mean percentage of filter paper disk surface covered by fungus)",Mucor spp. fungus [2]; [4],100%
same,"Fraction Covered, Day 5 (mean percentage of filter paper disk surface covered by fungus)",Mucor spp. fungus [2]; [4],100%
same,Fungal coverage of treated disks,"Mucor spp. fungus [2]; trial 3, fourth day",~100%
same,"Fraction Covered, Day 3 (mean percentage of filter paper disk surface covered by fungus)","Mucor spp. fungus [2]; trial 3, rate 200 μg per disk",0%
same,"Fraction Covered, Day 4 (mean percentage of filter paper disk surface covered by fungus)","Mucor spp. fungus [2]; trial 3, rate 200 μg per disk",94%
same,"Fraction Covered, Day 5 (mean percentage of filter paper disk surface covered by fungus)","Mucor spp. fungus [2]; trial 3, rate 200 μg per disk",93%
same,"Fraction Covered, Day 3 (mean percentage of filter paper disk surface covered by fungus)","Mucor spp. fungus [2]; trial 3, rate 600 μg per disk",1%
same,"Fraction Covered, Day 4 (mean percentage of filter paper disk surface covered by fungus)","Mucor spp. fungus [2]; trial 3, rate 600 μg per disk",100%
same,"Fraction Covered, Day 5 (mean percentage of filter paper disk surface covered by fungus)","Mucor spp. fungus [2]; trial 3, rate 600 μg per disk",100%
same,"Fraction Covered, Day 3 (mean percentage of filter paper disk surface covered by fungus)","Mucor spp. fungus [2]; trial 3, rate 1000 μg per disk",0%
same,"Fraction Covered, Day 4 (mean percentage of filter paper disk surface covered by fungus)","Mucor spp. fungus [2]; trial 3, rate 1000 μg per disk",91%
same,"Fraction Covered, Day 5 (mean percentage of filter paper disk surface covered by fungus)","Mucor spp. fungus [2]; trial 3, rate 1000 μg per disk",97%
same,"Fraction Covered, Day 3 (mean percentage of filter paper disk surface covered by fungus)",Mucor spp. fungus [3]; [5],96%
same,"Fraction Covered, Day 4 (mean percentage of filter paper disk surface covered by fungus)",Mucor spp. fungus [3]; [5],100%
same,"Fraction Covered, Day 5 (mean percentage of filter paper disk surface covered by fungus)",Mucor spp. fungus [3]; [5],100%
same,"Fraction Covered, Day 3 (mean percentage of filter paper disk surface covered by fungus)","Mucor spp. fungus [3]; trial 2, rate 2 μg per disk",98%
same,"Fraction Covered, Day 4 (mean percentage of filter paper disk surface covered by fungus)","Mucor spp. fungus [3]; trial 2, rate 2 μg per disk",99%
same,"Fraction Covered, Day 5 (mean percentage of filter paper disk surface covered by fungus)","Mucor spp. fungus [3]; trial 2, rate 2 μg per disk",99%
same,"Fraction Covered, Day 3 (mean percentage of filter paper disk surface covered by fungus)","Mucor spp. fungus [3]; trial 2, rate 20 μg per disk",92%
same,"Fraction Covered, Day 4 (mean percentage of filter paper disk surface covered by fungus)","Mucor spp. fungus [3]; trial 2, rate 20 μg per disk",95%
same,"Fraction Covered, Day 5 (mean percentage of filter paper disk surface covered by fungus)","Mucor spp. fungus [3]; trial 2, rate 20 μg per disk",98%
same,"Fraction Covered, Day 3 (mean percentage of filter paper disk surface covered by fungus)","Mucor spp. fungus [3]; trial 2, rate 200 μg per disk",81%
same,"Fraction Covered, Day 4 (mean percentage of filter paper disk surface covered by fungus)","Mucor spp. fungus [3]; trial 2, rate 200 μg per disk",91%
same,"Fraction Covered, Day 5 (mean percentage of filter paper disk surface covered by fungus)","Mucor spp. fungus [3]; trial 2, rate 200 μg per disk",99%
"CCCCCCCCOC(=O)c1ccccc1C(=O)OCCCCCCCC [Dioctyl phthalate, dioctyl phthalate]","Fraction Covered, Day 4 (mean percentage of filter paper disk surface covered by fungus)","Mucor spp. fungus [1]; trial 1, rate 2 μg per disk",67%
same,"Fraction Covered, Day 5 (mean percentage of filter paper disk surface covered by fungus)","Mucor spp. fungus [1]; trial 1, rate 2 μg per disk",78%
same,"Fraction covered, Day 6 (mean percentage of filter paper disk surface covered by fungus)","Mucor spp. fungus [1]; trial 1, rate 2 μg per disk",89%
same,"Fraction Covered, Day 4 (mean percentage of filter paper disk surface covered by fungus)","Mucor spp. fungus [1]; trial 1, rate 20 μg per disk",32%
same,"Fraction Covered, Day 5 (mean percentage of filter paper disk surface covered by fungus)","Mucor spp. fungus [1]; trial 1, rate 20 μg per disk",49%
same,"Fraction covered, Day 6 (mean percentage of filter paper disk surface covered by fungus)","Mucor spp. fungus [1]; trial 1, rate 20 μg per disk",88%
same,"Fraction Covered, Day 4 (mean percentage of filter paper disk surface covered by fungus)","Mucor spp. fungus [1]; trial 1, rate 200 μg per disk",57%
same,"Fraction Covered, Day 5 (mean percentage of filter paper disk surface covered by fungus)","Mucor spp. fungus [1]; trial 1, rate 200 μg per disk",69%
same,"Fraction covered, Day 6 (mean percentage of filter paper disk surface covered by fungus)","Mucor spp. fungus [1]; trial 1, rate 200 μg per disk",82%
